Reference: paper PMC7827417, “Steroid Glycosides Hyrcanoside and Deglucohyrcanoside: On Isolation, Structural Identification, and Anticancer Activity” (Foods, 2021)
Like-named read-outs stand apart in the source and are kept apart here.

How the values were obtained:
mouse peritoneal cells = assay: Viability of mouse peritoneal primary cells (macrophages), WST-1; format: cell-based; conditions: 24 h; for IC50: Mus musculus, Macrophage, WST-1, lowest tested concentration 1 nM, read-out: concentration at which IC50 was reached in mouse macrophages
Protocol: Female mice of the inbred strain C57BL/6, eight to ten weeks old, were purchased from Charles River Deutschland (Sulzfeld, Germany). They were kept in transparent plastic cages in groups of ten. The animals were housed with food and water ad libitum, lighting was set on 6–18 h, and the temperature was set at 22 °C. All protocols were approved by the institutional ethics committee (MSMT15894/2013-310). Animals, killed by cervical dislocation, were intraperitoneally injected with 8 mL of sterile saline. Pooled peritoneal cells collected from mice were washed in sterile saline, re-suspended in the culture medium, and seeded into 96-well microplates in final 100-μL volumes (Costar, Cambridge, MA, USA). The final density of the cells was 0.25 × 10^6 per mL^−1. The cultures were maintained with or without compounds for 24 h at 37 °C with 5% CO2 in a humidified Heraeus incubator in complete RPMI-1640 (Merck-Sigma, St. Louis, MS, USA), which contained 10% heat-inactivated fetal bovine serum, 2 mM of L-glutamine, 50 μg·mL^−1 of gentamicin, and 5 × 10^−5 M of 2-mercaptoethanol (all Merck-Sigma, St. Louis, MS, USA). Compounds (Ob, Cy (cymarin), Hyr, deHyr) were prepared as 100 mM stock solutions in dimethyl sulfoxide (DMSO) with cell culture grade. The next dilution continued immediately before the experiment with the culture medium. To eliminate the influence of DMSO, equal levels of DMSO were added to the experimental groups.
The viability of mouse peritoneal cells was determined using a colorimetric assay based on the cleavage of the tetrazolium salt WST-1 by mitochondrial dehydrogenases in viable cells (Merck-Sigma, St. Louis, MS, USA). The cells were cultured as described above. After 24 h of culture, the WST-1 was added, and the cells were kept in the Heraeus incubator at 37 °C for an additional 3 h. Optical density at 450/690 nm was determined. The cytotoxicity of the tested CGs was expressed as a percentage. The test samples were related to control samples consisting of untreated cells and samples with 100% dead cells evoked by 1% Triton, according to the formula: ((exp. value − control value)/(Triton value − control value)) × 100. All control and experimental variants were run in quadruplicates. The data were analyzed using GraphPad Prism software 6.05 (GraphPad, San Diego, CA, USA). Values were expressed as the mean ± standard error of the mean (SEM).

K562 = assay: MTS cytotoxic assay, K562; format: cell-based; conditions: Homo sapiens
Text: (§1) If not indicated otherwise, the cell lines were purchased from the American Type Culture Collection (ATCC). […] K562 is the erythroid-myeloid precursor cell line derived from chronic myeloid leukemia carrying the BCR-ABL hybrid gene. A549, MCF-7, PC-3, 5637, U-2 OS, and MiaPaCa-2 are cells derived from lung, breast, prostate, bladder carcinoma, osteosarcoma, and pancreatic adenocarcinoma, respectively. HEK 293T are transformed human embryonic kidney cells, and L929 (Sigma, St. Louis, MS, USA) are transformed mouse fibroblasts. HCT116, cells from colorectal carcinoma, and their p53 gene knock-out variant (HCT116p53-/-) were purchased from Horizon Discovery. This cell line is a model of human tumors bearing p53 loss-of-function mutations or biallelic deletion of the p53 gene, frequently associated with poor prognosis. The MRC-5 and BJ cells were used as noncancerous cells; more specifically, they are human fibroblasts from the lungs and foreskin, respectively. According to the supplier’s recommendations, all cells were cultured at 37 °C in a 5% CO2 atmosphere and 100% humidity. The culture media used were: DMEM, RPMI 1640, and MEM (according to a cell line); all were supplemented with 5 g L^−1 glucose, 10% fetal calf serum, 2 mM glutamine, 100 U mL^−1 penicillin, 100 µg mL^−1 streptomycin, and NaHCO3. Cells were passaged every two or three days using 0.25% trypsin plus 0.01% EDTA (ethylenediamine tetraacetic acid) in phosphate-buffered saline.
(§2) To evaluate compound cytotoxicity, cells were seeded in 384-well microtiter plates in a volume of […]. The next day, aliquots of the tested derivatives were transferred with Echo550 acoustic liquid handler (Labcyte) to obtain dose response curves with dilution factor 4. The experiments were performed in technical duplicates and three or more biological replicates. After 72 h of incubation in a humidified incubator, […] of the MTS/PMS stock solution were pipetted into each well. After another 1–4 h of incubation, the absorbance at 490 nm was measured using an EnVision Multilabel Plate Reader (PerkinElmer).

CCRF-CEM cells [1] = assay: BrDU incorporation analysis (DNA synthesis); format: cell-based, human; conditions: % of positive cells
Protocol: The cells were cultured in the same way as the cell cycle analysis method. Just before harvesting, 5-bromo-2′-deoxyuridine (BrDU) of 10 µM concentration was added to the cells for pulse-labeling for 30 min. Then, the cells were fixed with −20 °C cold 70% ethanol and stored in a freezer for 16 h. Before antibody staining, the samples were incubated on ice for 30 min, washed once with phosphate-buffered saline (PBS), and re-suspended in 2 M of HCl for 30 min at room temperature to hydrolyze their DNA. After neutralization with 0.1 M of Na2B4O7 (borax) solution, the cells were washed with PBS containing 0.5% Tween-20 and 1% BSA. This was followed by staining with the primary anti-BrDU antibody (Exbio) for 30 min at room temperature. Then, the cells were washed with PBS and stained with a secondary anti-mouse antibody conjugated to fluorescein isothiocyanate (Merck-Sigma, St. Louis, MS, USA) at room temperature in the dark. After another washing with PBS and incubation with propidium iodide (0.1 mg·mL^−1) and RNAse A (0.5 mg·mL^−1) for 1 h at room temperature in the dark, the cells were analyzed by flow cytometry using a 488 nm laser (FACSCalibur, Becton Dickinson, Franklin Lakes, NJ, USA).

L929 = assay: MTS cytotoxic assay, L929; format: cell-based, mouse
Text: as §1, §2

CCRF-CEM cells [2] = assay: BrU incorporation analysis (RNA synthesis); format: cell-based, human; conditions: % of positive cells
Protocol: The cells were cultured and processed as described above. Before harvesting, the cells were pulse-labeled with 1 mM of 5-bromouridine (BrU) for 30 min. The cells were then fixed in 1% buffered paraformaldehyde with 0.05% NP-40 at room temperature for 15 min, and then stored at 4 °C overnight. Before measurement, they were washed with 1% glycine in PBS, washed again with PBS, and stained with primary anti-BrdU antibody cross-reactive to BrU (Exbio) for 30 min at room temperature in the dark. From this point on, the experiment was performed exactly as in the method described above.

U-2 OS = assay: MTS cytotoxic assay, U-2 OS; format: cell-based; conditions: Homo sapiens, U2OS, 72 h
Text: as §1, §2

HCT116p53-/- = assay: MTS cytotoxic assay, HCT116p53-/-; format: cell-based; conditions: Homo sapiens, 72 h
Text: as §1, §2

BJ = assay: MTS cytotoxic assay, BJ; format: cell-based; conditions: Homo sapiens, 72 h
Text: as §1, §2

[3] = WST-1, 0.001–100.0 µM, not dose-dependent

## CO[C@H]1C[C@H](O[C@H]2CC[C@]3(C=O)[C@H]4CC[C@]5(C)[C@@H](C6=CC(=O)OC6)CC[C@]5(O)[C@@H]4CC[C@]3(O)C2)O[C@H](C)[C@H]1O [Cy, cymarin]
Mouse peritoneal cells; [3]
  cytotoxicity to mouse macrophages, % of the control: about 60%
Mouse peritoneal cells
  IC50: ≤ 1 nM
K562; K562, 72 h
  IC50: 25 ± 4.5 nM
CCRF-CEM cells [1]; 1 × IC50, 24 h
  BrDU: 32.34%
CCRF-CEM cells [1]; 5 × IC50, 24 h
  BrDU: 21.37%
L929; Mus musculus, L929, 72 h
  IC50: > 10000 nM
CCRF-CEM cells [2]; 1 × IC50, 24 h
  BrU: 35.63%
CCRF-CEM cells [2]; 5 × IC50, 24 h
  BrU: 27.52%
U-2 OS
  IC50: 43 ± 1.8 nM
HCT116p53-/-
  IC50: 19 ± 3.8 nM
BJ; BJ
  IC50: 54 ± 10 nM

## C[C@]12CC[C@H]3[C@@H](CCC4=C[C@@H](O[C@@H]5OC[C@@H](O[C@@H]6O[C@H](CO)[C@@H](O)[C@H](O)[C@H]6O)[C@H](O)[C@H]5O)CC[C@@]43C=O)[C@@]1(O)CC[C@@H]2C1=CC(=O)OC1 [Hyr, (3β)-3-[(4-O-β-D-glucopyranosyl-β-D-xylopyranosyl)oxy]-14-hydroxy-19-oxocarda-4,20(22)-dienolide]
Mouse peritoneal cells; [3]
  cytotoxicity to mouse macrophages, % of the control: about 60%
Mouse peritoneal cells
  IC50: ~100 nM
K562; K562, 72 h
  IC50: 800 ± 52 nM
CCRF-CEM cells [1]; 1 × IC50, 24 h
  BrDU: 30.58%
CCRF-CEM cells [1]; 5 × IC50, 24 h
  BrDU: 23.58%
L929; Mus musculus, L929, 72 h
  IC50: > 10000 nM
CCRF-CEM cells [2]; 1 × IC50, 24 h
  BrU: 28.80%
CCRF-CEM cells [2]; 5 × IC50, 24 h
  BrU: 3.82%
U-2 OS
  IC50: 1100 ± 59 nM
HCT116p53-/-
  IC50: 730 ± 98 nM
BJ; BJ
  IC50: 1450 ± 250 nM

## C[C@@H]1O[C@@H](O[C@H]2C[C@@H](O)[C@]3(CO)[C@H]4[C@H](O)C[C@]5(C)[C@@H](C6=CC(=O)OC6)CC[C@]5(O)[C@@H]4CC[C@]3(O)C2)[C@H](O)[C@H](O)[C@H]1O [Ob, ouabain]
Mouse peritoneal cells; WST-1, independent of concentration 1 nm–100 µM
  decrease of viability of mouse macrophages compared to the control: 10–20%
Mouse peritoneal cells; up to 100 µM concentration
  cytotoxicity to mouse macrophages (in words): did not exhibit significant cytotoxicity
K562; K562, MTS, 72 h, read-out: IC50
  IC50: 57 ± 6.2 nM
CCRF-CEM cells [1]; 1 × IC50, 24 h
  BrDU: 40.53%
CCRF-CEM cells [1]; 5 × IC50, 24 h
  BrDU: 19.29%
L929; L929 mouse transformed fibroblasts, MTS, 72 h, read-out: IC50
  IC50: > 10000 nM
CCRF-CEM cells [2]; 1 × IC50, 24 h
  BrU: 39.77%
CCRF-CEM cells [2]; 5 × IC50, 24 h
  BrU: 6.56%
U-2 OS; U-2 OS, MTS, read-out: IC50
  IC50: 59 ± 1.1 nM
HCT116p53-/-; HCT116p53-/-, MTS, read-out: IC50
  IC50: 28 ± 7.6 nM
BJ; BJ noncancerous foreskin fibroblasts, MTS, read-out: IC50
  IC50: 54 ± 9.9 nM

## C[C@]12CC[C@H]3[C@@H](CCC4=C[C@@H](O[C@@H]5OC[C@@H](O)[C@H](O)[C@H]5O)CC[C@@]43C=O)[C@@]1(O)CC[C@@H]2C1=CC(=O)OC1 [deHyr, deglucohyrcanoside]
Mouse peritoneal cells; [3]
  viability of mouse macrophages reduced to % of the control: 50%
Mouse peritoneal cells
  IC50: ~10 nM
K562; K562, 72 h
  IC50: 130 ± 21 nM
CCRF-CEM cells [1]; 1 × IC50, 24 h
  BrDU: 37.40%
CCRF-CEM cells [1]; 5 × IC50, 24 h
  BrDU: 6.08%
L929; Mus musculus, L929, 72 h
  IC50: > 10000 nM
CCRF-CEM cells [2]; 1 × IC50, 24 h
  BrU: 38.91%
CCRF-CEM cells [2]; 5 × IC50, 24 h
  BrU: 12.17%
U-2 OS
  IC50: 165 ± 11 nM
HCT116p53-/-
  IC50: 130 ± 23 nM
BJ; BJ
  IC50: 230 ± 35 nM
